According to PubChem BioAssay AID248 (DTP/NCI, 2004):
Several values for one entry are separate records, joined by “and”; a condition that tells them apart may be missing. Equal entries are not always repeated. Toxic doses and inconclusive results are not listed. No stated cut-off is given here; in the data, active means T/C of 150% or more; inactive means T/C below 125%.

Test system: L1210 leukemia ip in BDF1 mice, survival T/C
Assay: NCI In Vivo Anticancer Drug Screen. Data for tumor model L1210 Leukemia (intraperitoneal) in B6D2F1 (BDF1) mice
Conditions: endpoint: mean survival time, higher = longer survival
In short: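 Antitumor effect is assessed in tumor-bearing animals. Survival in the compound arm is compared with a vehicle-dosed control arm and expressed as their quotient.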

[1] = dose: 100.0 mg/kg/injection, schedule: Q01DX009 (ip), vehicle: Klucel (hydroxypropylcellulose) (HPC)
[2] = dose: 100.0 mg/kg/injection, schedule: Q04DX003 (ip), vehicle: Klucel (hydroxypropylcellulose) (HPC)
[3] = dose: 200.0 mg/kg/injection, schedule: Q01DX009 (ip), vehicle: Klucel (hydroxypropylcellulose) (HPC)
[4] = dose: 200.0 mg/kg/injection, schedule: Q04DX003 (ip), vehicle: Klucel (hydroxypropylcellulose) (HPC)
[5] = dose: 400.0 mg/kg/injection, schedule: Q01DX009 (ip), vehicle: Klucel (hydroxypropylcellulose) (HPC)
[6] = dose: 400.0 mg/kg/injection, schedule: Q04DX003 (ip), vehicle: Klucel (hydroxypropylcellulose) (HPC)
[7] = dose: 100.0 mg/kg/injection, schedule: Q01DX001 (ip), vehicle: Klucel (hydroxypropylcellulose) (HPC)
[8] = dose: 200.0 mg/kg/injection, schedule: Q01DX001 (ip), vehicle: Klucel (hydroxypropylcellulose) (HPC)
[9] = dose: 100.0 mg/kg/injection, schedule: Q04DX003 (ip), vehicle: saline
[10] = dose: 200.0 mg/kg/injection, schedule: Q04DX003 (ip), vehicle: saline
[11] = dose: 400.0 mg/kg/injection, schedule: Q04DX003 (ip), vehicle: saline
[12] = dose: 100.0 mg/kg/injection, schedule: Q04DX003 (ip), vehicle: saline with Tween-80
[13] = dose: 100.0 mg/kg/injection, schedule: Q01DX001 (ip), vehicle: saline

Measured: T/C

CC[C@](C)(O)C(=O)O[C@H]1C(=O)O[C@@H]2C[C@H]3C(C)=CC(=O)[C@@H](O)[C@]3(C)[C@H]3[C@@]4(O)OC[C@]32[C@@H]1[C@@H](C)[C@H]4O
inactive: dose: 0.2 mg/kg/injection, schedule: Q01DX009 (ip), vehicle: saline 98 % of control | dose: 0.3 mg/kg/injection, schedule: Q01DX009 (ip), vehicle: saline 100 % of control | dose: 0.44 mg/kg/injection, schedule: Q01DX009 (ip), vehicle: saline 92 % of control | dose: 0.66 mg/kg/injection, schedule: Q01DX009 (ip), vehicle: saline 92 % of control | dose: 1.0 mg/kg/injection, schedule: Q01DX009 (ip), vehicle: saline 102 % of control

CCOC(=O)c1cc([N+](=O)[O-])oc1C
inactive: [1] 102 % of control | [2] 98 % of control | [3] 102 % of control | [4] 94 % of control | [5] 112 % of control | [6] 100 % of control

CC1(C)COC(c2ccc3ccccc3c2)OC1
inactive: [2] 96 % of control | [4] 101 % of control | [6] 100 % of control

Cc1ccc(S(=O)(=O)N/N=C/C(Br)=C(/Br)C(=O)O)cc1
inactive: dose: 6.25 mg/kg/injection, schedule: Q01DX009 (ip), vehicle: Klucel (hydroxypropylcellulose) (HPC) 106 % of control | dose: 12.5 mg/kg/injection, schedule: Q01DX009 (ip), vehicle: Klucel (hydroxypropylcellulose) (HPC) 109 % of control | dose: 25.0 mg/kg/injection, schedule: Q01DX009 (ip), vehicle: Klucel (hydroxypropylcellulose) (HPC) 111 % of control | dose: 50.0 mg/kg/injection, schedule: Q01DX009 (ip), vehicle: Klucel (hydroxypropylcellulose) (HPC) 124 % of control

O=C(O)c1c(Br)c(Br)c(Br)c(Br)c1C(=O)Nc1ccccc1F
inactive: [1] 93 % of control | [3] 96 % of control

O=C(O)c1cc2ccccc2c2c1ccc1ccccc12
inactive: dose: 50.0 mg/kg/injection, schedule: Q01DX001 (ip), vehicle: Klucel (hydroxypropylcellulose) (HPC) 92 % of control | [7] 93 % of control | [8] 93 % of control

CCOC(=O)c1ccc(Cn2c(C)cc(=O)n(Cc3ccc(C(=O)OCC)cc3)c2=O)cc1
inactive: [7] 102 % of control | [8] 94 % of control | dose: 400.0 mg/kg/injection, schedule: Q01DX001 (ip), vehicle: Klucel (hydroxypropylcellulose) (HPC) 91 % of control

CC(C)OP(=O)(OC(C)C)C1=C(P(=O)(OC(C)C)OC(C)C)C(F)(F)C(F)(F)C1(F)F
inactive: dose: 9.5 mg/kg/injection, schedule: Q01DX001 (ip), vehicle: other 106 % of control | dose: 19.0 mg/kg/injection, schedule: Q01DX001 (ip), vehicle: other 95 % of control | dose: 38.0 mg/kg/injection, schedule: Q01DX001 (ip), vehicle: other 89 % of control

CCC[CH2][Sn]([CH2]CCC)([CH2]CCC)[CH2]c1ccccc1
inactive: [9] 98 % of control | [10] 102 % of control | [11] 88 % of control

COc1cc(-c2ccc(N=Nc3nc4nc(N)nc(O)c4[nH]3)c(OC)c2)ccc1N=Nc1nc2nc(N)nc(O)c2[nH]1
inactive: [2] 97 % of control | [4] 100 % of control | [6] 97 % of control

CCCCCC[CH2][Ge][CH2]CCCCCC
inactive: dose: 100.0 mg/kg/injection, schedule: Q04DX002 (ip), vehicle: saline with Tween-80 95 % of control | dose: 200.0 mg/kg/injection, schedule: Q04DX002 (ip), vehicle: saline with Tween-80 92 % of control | dose: 400.0 mg/kg/injection, schedule: Q04DX002 (ip), vehicle: saline with Tween-80 103 % of control

c1ccc(-c2cnc[nH]2)cc1
inactive: dose: 50.0 mg/kg/injection, schedule: Q01DX001 (ip), vehicle: carboxymethylcellulose (CMC) 100 % of control | dose: 100.0 mg/kg/injection, schedule: Q01DX001 (ip), vehicle: carboxymethylcellulose (CMC) 109 % of control | dose: 200.0 mg/kg/injection, schedule: Q01DX001 (ip), vehicle: carboxymethylcellulose (CMC) 117 % of control

CC(C)OC(CCC#N)c1ccccc1 (stereo not drawn)
inactive: [1] 101 % of control | [2] 102 % of control | [3] 98 % of control | [4] 96 % of control | [6] 102 % of control

O=C(COc1cccc(Cl)c1)Nc1cc[n+](Cc2ccc(S(=O)(=O)F)cc2)cc1
inactive: dose: 25.0 mg/kg/injection, schedule: Q04DX003 (ip), vehicle: saline with Tween-80 102 % of control | dose: 50.0 mg/kg/injection, schedule: Q04DX003 (ip), vehicle: saline with Tween-80 100 % of control | [12] 97 % of control and 113 % of control

CCCSc1ncnc2nc[nH]c12
inactive: dose: 31.3 mg/kg/injection, schedule: Q01DX009 (ip), vehicle: saline 93 % of control and 100 % of control | dose: 62.5 mg/kg/injection, schedule: Q01DX009 (ip), vehicle: saline 97 % of control and 121 % of control | dose: 125.0 mg/kg/injection, schedule: Q01DX009 (ip), vehicle: saline 121 % of control | dose: 250.0 mg/kg/injection, schedule: Q01DX009 (ip), vehicle: saline 100 % of control

Cc1ccc(NC(=O)Nc2cccc(Cl)c2)cc1C
inactive: [1] 96 % of control | [2] 90 % of control | [3] 98 % of control | [4] 92 % of control | [5] 95 % of control | [6] 92 % of control

Nc1ccc([I+]c2ccccc2)cc1
inactive: dose: 50.0 mg/kg/injection, schedule: Q01DX001 (ip), vehicle: saline 101 % of control | [13] 103 % of control

CCNCC#CCNCC
inactive: dose: 100.0 mg/kg/injection, schedule: Q01DX009 (ip), vehicle: saline 96 % of control | [9] 96 % of control | dose: 200.0 mg/kg/injection, schedule: Q01DX009 (ip), vehicle: saline 107 % of control | [10] 98 % of control | [11] 99 % of control

CC(=O)Nc1ccc(NC(C)=O)c2c1C(=O)c1ccccc1C2=O
inactive: dose: 100.0 mg/kg/injection, schedule: Q01DX009 (ip), vehicle: saline with Tween-80 94 % of control | [12] 119 % of control | dose: 200.0 mg/kg/injection, schedule: Q01DX009 (ip), vehicle: saline with Tween-80 96 % of control | dose: 200.0 mg/kg/injection, schedule: Q04DX003 (ip), vehicle: saline with Tween-80 112 % of control | dose: 400.0 mg/kg/injection, schedule: Q01DX009 (ip), vehicle: saline with Tween-80 91 % of control | dose: 400.0 mg/kg/injection, schedule: Q04DX003 (ip), vehicle: saline with Tween-80 93 % of control

CCN(CC)CCCC(C)NC(=O)c1cccc2c(N)cccc12 (stereo not drawn)
inactive: dose: 25.0 mg/kg/injection, schedule: Q01DX009 (ip), vehicle: water 110 % of control | dose: 50.0 mg/kg/injection, schedule: Q01DX009 (ip), vehicle: water 103 % of control | dose: 100.0 mg/kg/injection, schedule: Q01DX009 (ip), vehicle: water 101 % of control | dose: 200.0 mg/kg/injection, schedule: Q01DX009 (ip), vehicle: water 95 % of control | dose: 400.0 mg/kg/injection, schedule: Q01DX009 (ip), vehicle: water 103 % of control

CCC(c1ccc(OC)cc1)C(O)(CC)c1ccc(OC)cc1 (stereo not drawn)
inactive: [2] 98 % of control | [4] 98 % of control | [6] 102 % of control

Nc1ccc(S(=O)(=O)Nc2ccc(Nc3c4ccccc4nc4ccccc34)cc2)cc1
inactive: dose: 3.0 mg/kg/injection, schedule: Q01DX009 (ip), vehicle: saline with Tween-80 122 % of control | dose: 6.0 mg/kg/injection, schedule: Q01DX009 (ip), vehicle: saline with Tween-80 120 % of control

O=C(O)CNC(=S)Nc1ccc(S(=O)(=O)c2ccc(NC(=S)NCC(=O)O)cc2)cc1
inactive: [13] 102 % of control | dose: 200.0 mg/kg/injection, schedule: Q01DX001 (ip), vehicle: saline 102 % of control | dose: 400.0 mg/kg/injection, schedule: Q01DX001 (ip), vehicle: saline 102 % of control

O=[N+]([O-])c1ccc2cnn(CSP(=S)(c3ccccc3)c3ccccc3)c2c1
inactive: dose: 100.0 mg/kg/injection, schedule: Q01DX001 (ip), vehicle: other 93 % of control | dose: 200.0 mg/kg/injection, schedule: Q01DX001 (ip), vehicle: other 101 % of control | dose: 400.0 mg/kg/injection, schedule: Q01DX001 (ip), vehicle: other 101 % of control
